Like-named read-outs stand apart in the source and are kept apart here.
Legend:
[1] = cited from earlier work
[2] = tested on: hospitalized patients with COVID‐19; conditions: cited from earlier work
[3] = cited from earlier work; remark: listed apart in the source
[4] = samples >20 h postdose, median (IQR)
[5] = imatinib N = 197 vs placebo N = 188

SMILES | Metabolite AUC as % of the parent AUC ([1]; formed by CYP3A4) | Activity of the metabolite ([1]; relative to imatinib) | Premature treatment stop due to gastrointestinal (GI) toxicity ([2]; CounterCOVID) | Duration of invasive mechanical ventilation compared with placebo [2, 5] | Mortality compared with placebo [2, 5] | Protein bound in blood [3] | Observed total imatinib plasma concentration Ctrough ([4]; COVID-19 subset 1 (model building)) | Observed total imatinib plasma concentration Ctrough ([4]; COVID-19 subset 2 (validation set)) | Drug excreted by renal excretion [1] | Drug excreted via the feces [1] | Excreted unchanged ([1]; of the excreted drug) | Bioavailability ([1]; oral)
Cc1ccc(NC(=O)c2ccc(CN3CCNCC3)cc2)cc1Nc1nccc(-c2cccnc2)n1 [N‐desmethyl imatinib] | ~ 10% | active |  |  |  |  |  |  |  |  |  | 
Cc1ccc(NC(=O)c2ccc(CN3CCN(C)CC3)cc2)cc1Nc1nccc(-c2cccnc2)n1 [imatinib] |  |  | more imatinib treated patients stopped treatment prematurely | shorter | significantly lower | > 95% | 2156 (738–4179) µg/L | 1791 (928.4–3204) µg/L | 13% | 68% | 25% | almost complete

— article PMC8646516 (CPT: Pharmacometrics & Systems Pharmacology, 2021)
